Source: patent US20100048705A1, “METHODS OF TREATING AND PREVENTING NEOVASCULARIZATION WITH OMEGA-3 POLYUNSATURATED FATTY ACIDS” (CHILDREN'S MEDICAL CENTER CORPORATION, priority 2006, published 2010)
Entries after “also recorded” stand apart in the source; their conditions may differ.

What was measured:
[1] = tested on: mice with oxygen-induced retinopathy; experiment: Oxygen-induced retinopathy model: vaso-obliteration and retinal neovascularization at P17; assay type: in vivo, mouse; conditions: for decrease in vessel loss (VO) compared to vehicle control / decrease in neovascularization (Tufts) compared to vehicle-treated mice: 10 ng i.p. daily P6-P17, read at P17; for decrease in vessel loss (VO) compared to vehicle control / protection from vaso-obliteration compared to saline-injected controls: FIG. 7a; for decrease in neovascularization (Tufts) compared to vehicle-treated mice / neovascularization at P17 compared to saline controls: FIG. 7b; for neovascularization at P17 compared to saline controls / protection from vaso-obliteration compared to saline-injected controls: 10 ng/day i.p. P6-P17
From the text: Retinopathy is modeled in the mouse eye with oxygen-induced vessel loss which precipitates hypoxia-induced retinopathy^1. One-week-old C57BL/6J mice are exposed to 75% oxygen for 5 days and then to room air. A fluorescein-dextran perfusion method is used to assess the vascular pattern. The proliferative neovascular response is quantified by counting the nuclei of new vessels extending from the retina into the vitreous in 6 microns sagittal cross-sections. Cross-sections are also stained for glial fibrillary acidic protein (GFAP). Fluorescein-dextran angiography delineates the entire vascular pattern, including neovascular tufts in flat-mounted retinas. Hyperoxia-induced neovascularization occurs at the junction between the vascularized and avascular retina in the mid-periphery. Retinal neovascularization occurs in all the pups between postnatal day 17 and postnatal day 21. This serves as a reproducible and quantifiable mouse model of oxygen-induced retinal neovascularization for the study of pathogenesis of retinal neovascularization as well as for the study of medical intervention for ROP and other retinal angiopathies in humans. This model allows assessment of retinal vessel loss, vessel re-growth after injury and pathological angiogenesis^1.
Litters of mice were subjected to the oxygen induced retinopathy model. Briefly, mice (pups with mothers) on normal chow were placed in 75% oxygen at postnatal day 7, and kept at 75% oxygen for five days. Mice were then returned to room air. During this room air phase (P12-P17) the retina becomes hypoxic due to the vessel regression that occurred while mice were in hyperoxia. Here mice were given either an omega-3 or omega-6 LCPUFA diet. At p12 (once out of oxygen, after vessel loss) or at P15 (a few days later as retinopathy was setting in).
Animals. These studies adhered to the ARVO Statement for the Use of Animals in Ophthalmic and Vision Research. Fat-1 transgenic mice contain a humanized fat-1 cDNA driven by the cytomegalovirus enhancer and a chicken β-actin promoter^9. Fat-1 and control dams were fed a defined diet with elevated omega-6 polyunsaturated fatty acids. For diet studies C57Bl/6 mothers at delivery (unless otherwise indicated for FIG. 12) were fed a defined rodent diet with 10% (w/w) safflower oil containing 2% omega-6 polyunsaturated fatty acids (AA) and no omega-3 polyunsaturated fatty acids or the same defined diet except for 2% omega-3 polyunsaturated fatty acids (DHA and EPA) and no omega-6 polyunsaturated fatty acids (AA). (Table 1) Diets were stable over time and with oxygen exposure (Table 2), unless otherwise indicated.
(§1) O2-induced retinopathy (vessel degeneration, re-growth and pathological neovascularization). To induce vessel loss, postnatal day 7 (P7) mice with their nursing mother were exposed to 75% oxygen for times ranging from 24 hours to 5 days^1. To evaluate vaso-obliteration following 24 hours of oxygen exposure, P8 mice were anesthetized at with Avertin (Sigma) and perfused with 50 μl of 120 mg/ml FITC-dextran (2×10^6 molecular weight, FD2000S-5G, Sigma) in saline through the left ventricle^21. Eyes were enucleated and fixed in 4% paraformaldehyde for 2 h at 4° C. Retinas were isolated and whole-mounted with SlowFade Antifade reagent (S2828, Molecular Probes) onto polylysin-coated slides with the photoreceptor side up. Retinas were examined with a fluorescence microscope (Olympus, Tokyo), digitized images using a three-charge-coupled device color video camera (DX-950P, Sony), and processed with NORTHERN ECLIPSE software (Empix Imaging, Toronto). Retinal neovascularization was evaluated 5 days after oxygen exposure (P7-P12) at P17 when the neovascular response is greatest. P17 mice were given a lethal dose of Avertin (Sigma) and their eyes were enucleated and fixed in 4% paraformaldehyde for 2 h at 4° C. […]

[2] = tested on: mice exposed to 75% oxygen; experiment: Oxygen-induced vessel loss (vaso-obliteration) at P8 after 24 hours of 75% oxygen; assay type: in vivo, mouse; conditions: 10 ng i.p. P5-P8; FIG. 7c
Method: as §1, with “greatest.” for “greatest. P17 mice were given a lethal dose of Avertin (Sigma) and their eyes were enucleated and fixed in 4% paraformaldehyde for 2 h at 4° C.”
Quantification of vaso-obliteration and retinal neovascularization. […] Vaso-obliteration and neovascular tuft formation were quantified by comparing the number of pixels in the affected areas with the total number of pixels in the retina. […]
Resolvins and Neurorotectins. […] Retinas collected at P17 from omega-6 or omega-3 polyunsaturated fatty acid fed dams and exposed to high oxygen or room air conditions were analyzed to determine lipid mediator profiles. Polyunsaturated fatty acid derived products were extracted, identified, and quantified using a deuterium-labelled internal standard and MS-MS based mediator informatics^23. […] Following retinal staining and whole-mounting, neovascularization and vaso-obliteration were quantified at P17. Vaso-obliteration was also assessed at P8 (after 24 hours of 75% oxygen exposure) in pups given 10 ng of RvD1 (n=7), RvE1 (n=9), NPD1 (n=7), or saline/EtOH vehicle injections (n=6) i.p. from P5-P8. […]

TNF-α = conditions: literature refs 14, 15, 16; cited from earlier work

CC/C=C\C[C@H](O)\C=C/C=C/C=C/[C@H](O)C/C=C\C/C=C\CCC(=O)O [NPD1, 10R,17S dihydroxy-docosa-4Z,7Z,11E,13E,15Z,19z-hexaneoic acid]
decrease in vessel loss (VO) compared to vehicle control [1]: 40%
decrease in neovascularization (Tufts) compared to vehicle-treated mice [1]: 30%
neovascularization at P17 compared to saline controls [1]: less neovascularization
protection from vaso-obliteration compared to saline-injected controls ([1]; P17): significant protection
oxygen-induced vessel loss at P8 versus saline-injected control [2]: No apparent differences; also recorded: no protective action
TNF-α mRNA expression levels in inflammatory models (TNF-α): significantly reduce

etanercept [reference compound]
vaso-obliteration versus fellow saline-injected eye ([1]; intraocular (intravitreous) 12.5 μg at P12, omega-6 fed mice, P17, FIG. 11a): significantly reduce
retinal neovascularization versus fellow saline-injected eye ([1]; intraocular (intravitreous) 12.5 μg at P12, omega-6 fed mice, P17, FIG. 11b): suppressed; also recorded: significantly improved
vaso-obliteration (vessel loss) versus saline injected controls ([1]; intraperitoneal, 500 μg/mouse at P7, P12, P14, P16, omega-6 fed mice, P17, FIG. 10a): significantly protected; also recorded: significant reduction
pathologic neovascularization versus saline injected controls ([1]; intraperitoneal, 500 μg/mouse at P7, P12, P14, P16, omega-6 fed mice, P17, FIG. 10b): significantly protected; also recorded: significant reduction

CC/C=C\C[C@H](O)/C=C/C=C\C=C\C=C\[C@@H](O)[C@@H](O)C/C=C\CCC(=O)O [RvD1, 7S,8R,17S-trihydroxy-docosa-4Z,9E,11E,13Z,15E,19Z-hexaenoic acid]
decrease in vessel loss (VO) compared to vehicle control [1]: 40%
decrease in neovascularization (Tufts) compared to vehicle-treated mice [1]: 30%
neovascularization at P17 compared to saline controls [1]: less neovascularization
protection from vaso-obliteration compared to saline-injected controls ([1]; P17): significant protection
oxygen-induced vessel loss at P8 versus saline-injected control [2]: No apparent differences
TNF-α mRNA expression levels in inflammatory models (TNF-α): significantly reduce

CC[C@@H](O)/C=C/C=C\C[C@@H](O)/C=C/C=C/C=C\[C@@H](O)CCCC(=O)O [RvE1, 5S,12R,18R-trihydroxy-6Z,8E,10E,14Z,16E-eicosapentaenoic acid]
decrease in vessel loss (VO) compared to vehicle control [1]: 40%
decrease in neovascularization (Tufts) compared to vehicle-treated mice [1]: 30%
neovascularization at P17 compared to saline controls [1]: less neovascularization
protection from vaso-obliteration compared to saline-injected controls ([1]; P17): significant protection
oxygen-induced vessel loss at P8 versus saline-injected control [2]: No apparent differences; also recorded: no protective action
TNF-α mRNA expression levels in inflammatory models (TNF-α): significantly reduce
